The source of these data is patent US20260232768A1, “TREATMENT OF ATOPIC DERMATITIS WITH POLYETHYLENE GLYCOL-MODIFIED INTERLEUKIN 2, GLUCOCORTICOID AND HYALURONIC ACID” (priority 2023, published 2026).

Marks after values point to notes of the source that are not given here.

Experiment [1] relates to CD25+FoxP3+ cells in spleen CD3+CD4+ lymphocytes and PD-1+ cells in CD3+CD4+CD25+FoxP3+ cells. Description: Intraperitoneal injection in physiological model mice, spleen Treg and PD-1 by flow cytometry. In kind it is in vivo, BALB/c mice. Background: Flow cytometry measures light scatter and fluorescence of single cells or particles in a stream.
Source text: We intraperitoneally injected PEG-IL-2 modified with non-branched PEG of different molecular weight sizes in physiological model mice, and detected FoxP3+ regulatory T cells and the expression of PD-1 in spleen cells on day 4.
Experiment [2] relates to OVA induced atopic dermatitis (AD) mouse model. Description: OVA induced atopic dermatitis (AD) mouse model, skin inflammation status scoring. In kind it is in vivo, BALB/c mice. As to conditions: AD model mice, topical patch for 3 consecutive days; total score 0-12; 6 mice per group.
Procedure: 10 μg OVA was mixed with 2 mg of aluminum hydroxide in 200 μL of phosphate buffer (PBS) solution, intraperitoneally injected to sensitize mice, once every week (at day 0, 7 and 14), each mouse was injected 3 times, 200 μL each time. On day 14, mice were anesthetized using pentobarbital intraperitoneal injection. […] The OVA patch was prepared by wetting a 1.5×1.5 cm^2 sterile gauze in a solution of 1 mg/mL of OVA (dissolved in PBS) (approximately 100 μL of OVA solution), and was attached using a transparent dressing to the back skin after epilation and replaced daily for 3-7 days to develop dermatitis manifestation, and the status of the back skin of the mice was recorded photographically on day 4~5 after inducing mouse dermatitis (the dermatitis manifestation was most obvious), and the skin inflammation status was scored. […]
Skin inflammation status scores assess dermatitis severity clinically. The total score was 0 to 12, evaluated from four aspects, edema, erythema, scaling and erosion, respectively, an individual score was 0-3 (0, no; 1, mild; 2, moderate; 3, severe), and the final score was the sum of each individual term [SCHWARTZ C, et al. Spontaneous atopic dermatitis in mice with a defective skin barrier is independent of ILC2 and mediated by IL-1β.

As to “normal IL-2: recombinant human interleukin 2 not modified with PEG, SEQ ID NO: 1, 15 kD”, in experiment [1] (detected on day 4), the “up-regulation of FoxP3+ regulatory T cells in spleen (in words)” value is reported as “did not up-regulate Tregs”. The “expression of PD-1 by regulatory T cells (in words)” value in experiment [1] (spleen, day 4) is “can promote the expression of PD-1”.
For the compound `CCCC1O[C@@H]2C[C@H]3[C@@H]4CCC5=CC(=O)C=C[C@]5(C)[C@H]4[C@@H](O)C[C@]3(C)[C@]2(C(=O)CO)O1` (stereo partly drawn) [Budesonide alone, budesonide], the “Dermatitis score (χ ± s)” value in experiment [2] is listed as 2.333 ± 1.211*^.
